Experimental data reported in US20150306232A1, “HYDROGELATORS COMPRISING D-AMINO ACIDS” (BRANDEIS UNIVERSITY, priority 2012, published 2015).
Values belong to the compound of their own block, whether it stands above or below them. Non-standard residues stand in square brackets, D forms with d. Residues, ends and D or L forms follow the SMILES beside them. *: point of attachment. Paclitaxel(2'-O-succinyl) = CC(=O)O[C@H]1C(=O)[C@@]2(C)[C@H]([C@H](OC(=O)c3ccccc3)[C@]3(O)C[C@H](OC(=O)[C@H](OC(=O)CCC(=O)*)[C@@H](NC(=O)c4ccccc4)c4ccccc4)C(C)=C1C3(C)C)[C@]1(OC(C)=O)CO[C@@H]1C[C@@H]2O; Naproxen = COc1ccc2cc([C@H](C)C(=O)*)ccc2c1; d(pY) = N[C@H](Cc1ccc(OP(=O)(O)O)cc1)C(=O)O; Acetyl(2-naphthyl) = O=C(Cc1ccc2ccccc2c1)*

Tests used:
HeLa cells = experiment: cells; assay type: cell-based; conditions: 72 hours at 37° C., MTT; read-out: IC50, HeLa cell viability
Experimental: We seeded […] (cells/well) of health HeLa cells into 96-well plate with 100 μL of MEM medium supplemented with 10% fetal bovine serum (FBS), 100 U/mL penicillin and 100 mg mL21 streptomycin. The incubation at 37° C. and 5% CO2 for 12 hours allowed HeLa cells to attach the bottom of 96-well plate. Then we replaced the medium by another 100 μL of growth medium that contained serial diluents of our compounds (0.5% DMSO) and then incubated the cells at 37° C. and 5% CO2 for additional 72 hours. During the measurement of proliferation for HeLa cells, which were assayed into three days, we added 10 μL of (3-(4,5-Dimethylthiazol-2-yl)-2,5-diphenyltetrazolium bromide (MTT, 0.5 mg/mL) into the assigned wells in their corresponding day every 24 hours, which was followed by adding 100 μL of 0.1% sodium dodecyl sulfate (SDS) 4 hours later. Then we collected the assay results after another 24 hours incubation. Since the mitochondrial reductase in living cells reduced MTT to purple fomazan, the absorbance at 595 nm of the whole solution was finally measured by DTX 880 Multimode Detector. With MEM medium as blank and untreated HeLa cells as control, we measure each concentration of these compounds in triplicate. The IC50 values of our hydrogelators were read from their activity curves (with the measurement of 8 different concentrations) in day 3.

[1] = enzymatic hydrogelation with ALP; assay type: physicochemical; conditions: water, pH 7.4
Experimental: To investigate the enzymatic hydrogelation of the D-peptidic precursor 11b, we prepared a series of hydrogels formed by using ALP to treat 11b at different concentrations. After dissolving 1.0, 2.0, 3.0, 4.0, and 5.0 mg of 11b in 0.5 mL of water (pH 7.6), respectively, we obtained clear solutions of 11b with different concentrations. The treatment of the solutions of 11b with ALP (1.0 U/mL) afforded the molecules of hydrogelator 12b, which are less soluble than 11b and thus self-assemble in water to form hydrogels when the concentrations of 12b are sufficient.
All the compounds were dissolved in de-ionized water. We then adjusted pH of the solutions carefully adding 1 M of NaOH and 1 M of HCl and measured the values by pH paper (pH 6.0-8.0). After prepared clear weakly basic solutions (pH 7.6 or 7.4), we then formed the hydrogels by adding enzymes (alkaline phosphatase).

[2] = toxicity and relative weight of treated mice; assay type: in vivo, Balb/c mice; conditions: hydrogel, single intratumoral injection, 14 days
COX-2 = COX-2 (Homo sapiens, UniProt P35354); experiment: COX-2 (μM)
Description: (§1) Table printed on a drawing sheet, Figure 7
Head of the field: COX-2 (μM)
(§2) First copying reader's note: The head cell at top left is split by a diagonal line (IC50 for the columns, Hydrogel for the rows); the footnote for the mark ^a is not printed on the sheet.
Where the first naming reader finds the target: head: COX-2 (μM)

COX-1 = COX-1 (μM)
Description: as §1
Head of the field: COX-1 (μM)
as §2
Where the first naming reader finds the target: head: COX-1 (μM)

[3] = rheological measurement of Npx containing hydrogels; assay type: physicochemical; conditions: hydrogel 0.8 wt %; for storage modulus G′: 6.28 rad/s
Experimental: Rheological tests were conducted on TA ARES G2 rheometer with TA Orchestrator Software. 25 mm cone-plate was used during the experiment. 0.2 mL of hydrogel sample was placed on the cone-plate.
The measurement performs at the frequency of 6.28 rad/s (0.1 to 10% strain, frequency=10 rads^−1, 10 points per decade). Sweep mode is “log” and temperature was carried out at 25° C. The critical strain (γc) value was determined from the storage-strain profiles of the hydrogel sample. The strain applied to the hydrogel sample increased from 0.1 to 100% (10 rad/s and 25° C.). Over a certain strain, a drop in the elastic modulus was observed, and the strain amplitude at which storage moduli just begins to decrease by 5% from its maximum value was determined and taken as a measure of the critical strain of the hydrogels, which correspond to the breakdown of the cross-linked network in the hydrogel sample.
The frequency ranges from 200 rad/s to 0.1 rad/s, depending on the viscoelastic properties of each sample. A suitable strain was used to ensure the linearity of dynamic viscoelasticity.

[4] = in vitro release of hydrogelators from hydrogels; assay type: physicochemical; conditions: 0.8 wt % hydrogel, PBS pH 7.4, 37° C., after 24 hours
Experimental: After studying their drug efficacies, the sustained release of Npx-containing hydrogelators from 0.8 wt % of hydrogels was studied. We incubated 100 μL of hydrogels at 37° C. for 24 hours with 100 μL of PBS buffer solution (pH 7.4), which is refreshed and monitored at 1 h, 2 h, 4 h, 8 h, 12 h, and 24 h. […] After 24 hours, hydrogel 1 slowly and steadily released 6.5% of the hydrogelator. […] Hydrogels 5 and 6 release 35.8% and 31.7% of hydrogelators after 24 h.
To illustrate the in vitro release profile of hydrogelators, we prepared 100 μL of the hydrogels formed by 1 (0.8 wt %, pH 4.0), 2 (0.8 wt %, pH 7.6), 3 (0.8 wt %, pH 7.6), 4 (0.8 wt %, pH 7.6), 5 (0.8 wt %, pH 7.0), and 6 (0.8 wt %, pH 7.0). With the addition of PBS buffer (100 μL, pH 7.4) onto the surface of hydrogels, the gels were incubated at 37° C. for 24 hours. The release solutions (100 μL) were taken and refreshed at […], 2 h, 4 h, 8 h, 12 h, and 24 h, which were detected by analytical HPLC at 276 nm for the quantities of released Npx containing hydrogelators 1, 2, 3, 4, 5, and 6.

COX-1 (ovine) enzyme = biological target: T1, COX-1 (ovine) enzyme (Ovis aries, UniProt P05979); experiment: COX Fluorescent Inhibitor Screening Assay, COX-1; assay type: biochemical; conditions: read-out: IC50 for inhibiting COX-1 enzyme
T1 construct: purchased Cayman Chemical 700100
T1 sequence (P05979 25-600): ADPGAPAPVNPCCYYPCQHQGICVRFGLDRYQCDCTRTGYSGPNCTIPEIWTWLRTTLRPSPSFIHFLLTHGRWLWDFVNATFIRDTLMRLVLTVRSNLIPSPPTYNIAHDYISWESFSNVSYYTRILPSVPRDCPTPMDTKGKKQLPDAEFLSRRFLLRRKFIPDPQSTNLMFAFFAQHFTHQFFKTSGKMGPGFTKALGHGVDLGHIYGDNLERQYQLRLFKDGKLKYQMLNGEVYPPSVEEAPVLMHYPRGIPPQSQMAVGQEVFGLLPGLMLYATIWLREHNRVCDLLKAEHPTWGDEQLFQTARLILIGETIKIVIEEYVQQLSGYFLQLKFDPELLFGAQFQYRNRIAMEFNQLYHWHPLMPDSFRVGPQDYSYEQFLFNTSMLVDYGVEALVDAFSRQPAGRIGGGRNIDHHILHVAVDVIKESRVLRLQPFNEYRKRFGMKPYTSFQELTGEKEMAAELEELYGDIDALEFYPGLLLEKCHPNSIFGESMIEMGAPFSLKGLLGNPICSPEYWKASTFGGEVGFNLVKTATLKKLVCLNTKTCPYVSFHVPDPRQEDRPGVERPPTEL
Experimental: To study the drug efficacies of NSAID containing hydrogelators, here we used ‘COX Fluorescent Inhibitor Screening Assay Kit’ (700100; Cayman Chemical) to do in vitro inhibition assays for Npx and Npx containing hydrogelors 1, 2, 3, 4, 5, and 6. Each compound was tested by COX-1 (ovine) enzyme and COX-2 (human recombinant) enzyme separately in 96 well black assay plates. By utilizing the peroxidase component of COXs, we monitored the reaction between PGG2 and ADHP (10-acetyl-3,7-dihydroxyphenoxazine), which produced highly fluorescent compound resorufin. This resorufin can be easily analyzed by multimode detector with an excitation wavelength of 530-540 nm and an emission wavelength of 585-595 nm. All the compounds are assayed in triplicate. After the combination of 10 μl of inhibitors, 10 μl of Heme solution, 10 μL of fluorometric substrate, 10 μl of enzyme (either COX-1 or COX-2), and 150 μl of assay buffer, we quickly add 10 μl of arachidonic acid solution to initiate the reaction. Then we read the plate exactly after two minutes incubation at room temperature. In this experiment, we also measure the blank data without enzyme and inhibitors, and the control data without inhibitors. The IC50 values of these hydrogelators were read from their activity curves (FIG. 18), which were measured with 5 different concentrations of these hydrogelators (dissolved in DMSO).

COX-2, sequence (P35354 18-604 limits assumed): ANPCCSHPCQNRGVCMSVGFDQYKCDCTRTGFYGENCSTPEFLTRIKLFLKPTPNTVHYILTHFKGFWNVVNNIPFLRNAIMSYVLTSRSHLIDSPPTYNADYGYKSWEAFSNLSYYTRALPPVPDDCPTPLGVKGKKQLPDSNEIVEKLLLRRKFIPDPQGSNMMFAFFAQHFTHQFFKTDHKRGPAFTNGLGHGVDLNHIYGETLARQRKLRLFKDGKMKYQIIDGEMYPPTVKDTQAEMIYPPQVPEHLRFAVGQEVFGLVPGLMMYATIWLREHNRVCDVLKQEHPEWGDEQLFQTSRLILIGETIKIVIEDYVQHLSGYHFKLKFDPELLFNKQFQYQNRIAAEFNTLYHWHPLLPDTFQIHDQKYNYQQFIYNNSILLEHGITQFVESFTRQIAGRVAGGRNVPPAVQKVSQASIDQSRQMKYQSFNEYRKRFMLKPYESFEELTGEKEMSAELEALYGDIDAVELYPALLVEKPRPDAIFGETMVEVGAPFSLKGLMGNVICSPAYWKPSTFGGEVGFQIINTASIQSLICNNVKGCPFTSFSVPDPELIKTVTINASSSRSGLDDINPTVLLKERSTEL

Compound: CC(=O)O[C@H]1C(=O)[C@@]2(C)[C@H]([C@H](OC(=O)c3ccccc3)[C@]3(O)C[C@H](OC(=O)[C@H](OC(=O)CCC(=O)NCCCC[C@@H](NC(=O)[C@@H](Cc4ccccc4)NC(=O)[C@@H](Cc4ccccc4)NC(=O)Cc4ccc5ccccc5c4)C(=O)N[C@H](Cc4ccc(OP(=O)(O)O)cc4)C(=O)O)[C@@H](NC(=O)c4ccccc4)c4ccccc4)C(C)=C1C3(C)C)[C@]1(OC(C)=O)CO[C@@H]1C[C@@H]2O [19b, 2-(Naphthalen-2-yl)acetyl-(D)-Phe-(D)-Phe-(D)-Lys(Taxol)-(D)-Tyr phosphate] ({Acetyl(2-naphthyl)}-[dF][dF][dK](Paclitaxel(2'-O-succinyl))[d(pY)]-OH)
IC50 (HeLa cells): 0.0619 µM
solubility [1]: relatively good solubility

Compound: CC(=O)O[C@H]1C(=O)[C@@]2(C)[C@H]([C@H](OC(=O)c3ccccc3)[C@]3(O)C[C@H](OC(=O)[C@H](OC(=O)CCC(=O)NCCCC[C@@H](NC(=O)[C@@H](Cc4ccccc4)NC(=O)[C@@H](Cc4ccccc4)NC(=O)Cc4ccc5ccccc5c4)C(=O)N[C@H](Cc4ccc(O)cc4)C(=O)O)[C@@H](NC(=O)c4ccccc4)c4ccccc4)C(C)=C1C3(C)C)[C@]1(OC(C)=O)CO[C@@H]1C[C@@H]2O [20b] ({Acetyl(2-naphthyl)}-[dF][dF][dK](Paclitaxel(2'-O-succinyl))[dY]-OH)
IC50 (HeLa cells): 0.106 µM
solubility [1]: relatively good solubility
side effect from relative weights of mice [2]: limit the side effect of Taxol to the mice

Compound: COc1ccc2cc([C@H](C)C(=O)N[C@@H](Cc3ccccc3)C(=O)N[C@@H](Cc3ccccc3)C(=O)O)ccc2c1 [L-1, Naproxen-L-Phe-L-Phe]
IC50 (COX-2): 715 µM
IC50 (COX-1): 986 µM

Compound: COc1ccc2cc([C@H](C)C(=O)N[C@@H](Cc3ccccc3)C(=O)N[C@@H](Cc3ccccc3)C(=O)N[C@@H](Cc3ccc(O)cc3)C(=O)O)ccc2c1 [L-2, Naproxen-L-Phe-L-Phe-L-Tyr]
IC50 (COX-2): 144 µM
IC50 (COX-1): 294 µM

Compound: COc1ccc2cc([C@H](C)C(=O)N[C@H](Cc3ccccc3)C(=O)N[C@H](Cc3ccccc3)C(=O)O)ccc2c1 [compound 1, Naproxen-D-Phe-D-Phe]
critical strain [3]: 1.0%
storage modulus G′ [3]: 5.3×10^4 Pa
hydrogelator released from hydrogel [4]: 6.5%
IC50 (COX-1 (ovine) enzyme): 854 µM

More lines, now with the values ahead:

critical strain [3]: 5.5%
storage modulus G′ [3]: 1.5×10^2 Pa
hydrogelator released from hydrogel [4]: 19.8%
Compound: COc1ccc2cc([C@H](C)C(=O)N[C@H](Cc3ccccc3)C(=O)N[C@H](Cc3ccccc3)C(=O)N[C@H](CCCCN)C(=O)N[C@H](Cc3ccc(O)cc3)C(=O)O)ccc2c1 [compound 4, Npx-ffky] (Naproxen-[dF][dF][dK][dY]-OH)

IC50 (COX-1 (ovine) enzyme): 476 µM
Compound: COc1ccc2cc([C@H](C)C(=O)NCCCC[C@@H](NC(=O)[C@@H](Cc3ccccc3)NC(=O)[C@H](N)Cc3ccccc3)C(=O)O)ccc2c1 [compound 5, D-Phe-D-Phe-D-Lys(naproxen)]

IC50 (COX-1 (ovine) enzyme): 367 µM
Compound: COc1ccc2cc([C@H](C)C(=O)NCCCC[C@@H](NC(=O)[C@@H](Cc3ccccc3)NC(=O)[C@H](N)Cc3ccccc3)C(=O)N[C@H](Cc3ccc(O)cc3)C(=O)O)ccc2c1 [compound 6, D-Phe-D-Phe-D-Lys(naproxen)-D-Tyr] (H-[dF][dF][dK](Naproxen)[dY]-OH)
